Source: patent US8076486B2, “Heteroaryl-substituted arylaminopyridine derivatives as MEK inhibitors” (Merck Serono S.A., priority 2006, dated 2011)

Columns and labels:
human MEK1 = human MEK1 (Homo sapiens, UniProt Q02750, S218E/S222E); experiment: MEK-1 Enzyme Assay (LANCE-HTRF); assay type: biochemical; details: MEK-1 EE, ERK-2K52A substrate, 9 uM ATP, 1.5 hrs
Procedure: Assay 1: MEK-1 Enzyme Assay (LANCE-HTRF)
Inhibition of human MEK1 kinase activity was monitored with a homogenous, fluorescence-based assay. The assay uses time resolved fluorescence resonance energy transfer to probe for phosphorylation of ERK1 by MEK1. The detailed procedure is described in the following:
Constititutively active MEK-1 EE (150 ng/well) and ERK-2K52A (110 ng/well) were incubated in black, 384 well Optiplates (Perkin Elmer) for 1.5 hrs at room temperature, in the presence of increasing concentrations of inhibitors. The total reaction volume was 50 ul. The inhibitors were serial diluted in kinase buffer (9 uM ATP, 50 mM Tris-Hcl pH 8.0, 10 mM MgCl2, 1 mM DTT and 100 uM Na3VO4), to a final concentration of 1% DMSO. At the end of the incubation, the enzyme reaction was quenched by adding 50 ul of assay buffer containing 50 mM Tris-Hcl, 50 mM EDTA, 0.1% BSA and a mixture of 1.25 ug/mL europium labeled anti-phosphotyrosine mAb (Perkin Elmer) and 5 ug/mL of allophycocyanin labeled anti-GST antibody (CIS-US). Plates were agitated on a plate shaker for 30 minutes and the phosphorylation of the ERK-2K52A substrate was measured by homogeneous time resolved fluorescence (HTRF) at 340 nm excitation and […] emission filters on the VICTOR V fluorescence plate reader. Phosphorylation is expressed as a ratio of 665 nM signal×10,000/615 nM signal. To assess the inhibitory potential of the compounds, IC50-values were determined.

Murine colon C26 cells = experiment: Tumor Cell Proliferation Assay (ATP Lite), C26; assay type: cell-based; details: Mus musculus, 96 h, 4 days, ATPlite
Procedure: (§1) Assay 2: Tumor Cell Proliferation Assays (ATP Lite)
(§2) Murine colon C26 (1500 cells/well), human melanoma A375 (2000 cells/well), or human pancreatic MiaPaCa-2 cells (2000 cells/well) were plated in white, 96 well plates (Corning) in growth media (DMEM with 10% fetal bovine serum, 2 mM glutamine for C26 and MiaPaCa-2, and RPMI with 10% fetal bovine serum, 2 mM glutamine for A375) and cultured overnight at 37° C. in a humidified, 5% CO2 incubator. Inhibitors were serially diluted in 100% DMSO and subsequently added to the cells, in growth media, to reach a final concentration of 0.25% DMSO. The cells were incubated for 4 days in the presence of the test compounds and the proliferation was quantitated using the ATPlite cell proliferation kit (Packard).

[1] = tested on: human melanoma A375 cells; experiment: Tumor Cell Proliferation Assay (ATP Lite), A375; assay type: cell-based; details: A-375, 96 h, 4 days, ATPlite
Procedure: as §1, §2

[2] = tested on: human pancreatic MiaPaCa-2 cells; experiment: Tumor Cell Proliferation Assay (ATP Lite), MiaPaCa-2; assay type: cell-based; details: MIA PaCa-2, 96 h, 4 days, ATPlite, read-out: MiaPaCa2 cell proliferation IC50
Procedure: as §1, §2

Sequence of human MEK1 (Q02750 whole entry S218E/S222E): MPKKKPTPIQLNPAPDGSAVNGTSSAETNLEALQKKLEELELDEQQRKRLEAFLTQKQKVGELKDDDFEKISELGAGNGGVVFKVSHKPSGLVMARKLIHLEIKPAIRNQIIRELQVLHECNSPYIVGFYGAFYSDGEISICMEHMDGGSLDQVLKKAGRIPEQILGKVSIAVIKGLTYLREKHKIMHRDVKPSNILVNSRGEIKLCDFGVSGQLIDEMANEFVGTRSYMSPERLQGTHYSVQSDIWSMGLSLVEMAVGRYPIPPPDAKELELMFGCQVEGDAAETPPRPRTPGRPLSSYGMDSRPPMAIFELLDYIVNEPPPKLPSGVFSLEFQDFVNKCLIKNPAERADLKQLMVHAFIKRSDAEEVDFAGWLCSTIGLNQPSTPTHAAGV

CC1(C)OCC(CNc2nnc(-c3ccncc3Nc3ccc(I)cc3F)o2)O1 (centres unmarked) [Example 10, (4-{5-[(2,2-Dimethyl-[1,3]dioxolan-4-ylmethyl)-amino]-[1,3,4]oxadiazol-2-yl}-pyridin-3-yl)-(2-fluoro-4-iodo-phenyl)-amine]
IC50 (human MEK1): ≤ 3000 nM
IC50 (Murine colon C26 cells): ≤ 3000 nM
IC50 [1]: ≤ 3000 nM
IC50 [2]: ≤ 3000 nM

O=c1[nH]nc(-c2ccncc2Nc2ccc(I)cc2F)o1 [Example 1, 5-[3-(2-Fluoro-4-iodo-phenylamino)-pyridin-4-yl]-3H-[1,3,4]oxadiazol-2-one]
IC50 (human MEK1): ≤ 3000 nM
IC50 (Murine colon C26 cells): 3000 to 25000 nM
IC50 [1]: ≤ 3000 nM
IC50 [2]: 3000 to 25000 nM

CCOC(=O)CNC(=O)Nc1nnc(-c2ccncc2Nc2ccc(I)cc2F)o1 [Example 17, (3-{5-[3-(2-Fluoro-4-iodo-phenylamino)-pyridin-4-yl]-[1,3,4]oxadiazol-2-yl}-ureido)-acetic acid ethylester]
IC50 (human MEK1): ≤ 3000 nM
IC50 (Murine colon C26 cells): > 25000 nM
IC50 [1]: 3000 to 25000 nM
IC50 [2]: 3000 to 25000 nM

Fc1cc(I)ccc1Nc1cnccc1-c1nnc(NCCN2CCCC2)o1 [Example 23, (2-Fluoro-4-iodo-phenyl)-{4-[5-(2-pyrrolidin-1-yl-ethylamino)-[1,3,4]oxadiazol-2-yl]-pyridin-3-yl}-amine]
IC50 (human MEK1): ≤ 3000 nM
IC50 (Murine colon C26 cells): ≤ 3000 nM
IC50 [1]: ≤ 3000 nM
IC50 [2]: ≤ 3000 nM

OCc1noc(-c2ccncc2Nc2ccc(I)cc2F)n1 [Example 38, {5-[3-(2-Fluoro-4-iodo-phenylamino)-pyridin-4-yl]-[1,2,4]oxadiazol-3-yl}-methanol]
IC50 (human MEK1): ≤ 3000 nM
IC50 (Murine colon C26 cells): ≤ 3000 nM
IC50 [1]: ≤ 3000 nM
IC50 [2]: 3000 to 25000 nM

COc1ccc(Nc2cnccc2-c2nnc(N)o2)c(F)c1 [Example 25, [4-(5-Amino-[1,3,4]oxadiazol-2-yl)-pyridin-3-yl]-(2-fluoro-4-methoxy-phenyl)-amine]
IC50 (human MEK1): ≤ 3000 nM
IC50 (Murine colon C26 cells): ≤ 3000 nM
IC50 [1]: ≤ 3000 nM
IC50 [2]: ≤ 3000 nM

Fc1cc(I)ccc1Nc1cnccc1-c1nnc(NCC2CCCO2)s1 (centres unmarked) [Example 50, (2-Fluoro-4-iodo-phenyl)-(4-{5-[(tetrahydro-furan-2-ylmethyl)-amino]-[1,3,4]thiadiazol-2-yl}-pyridin-3-yl)-amine]
IC50 (human MEK1): ≤ 3000 nM
IC50 (Murine colon C26 cells): ≤ 3000 nM
IC50 [1]: ≤ 3000 nM
IC50 [2]: ≤ 3000 nM

Fc1cc(I)ccc1Nc1cnccc1-c1nnc(NCCN2CCCCC2)o1 [Example 18, (2-Fluoro-4-iodo-phenyl)-{4-[5-(2-piperidin-1-yl-ethylamino)-[1,3,4]oxadiazol-2-yl]-pyridin-3-yl}-amine]
IC50 (human MEK1): ≤ 3000 nM
IC50 (Murine colon C26 cells): ≤ 3000 nM
IC50 [1]: ≤ 3000 nM
IC50 [2]: ≤ 3000 nM

O=c1[nH]nc(-c2ccncc2Nc2ccc(I)cc2F)[nH]1 [Example 4, 5-[3-(2-Fluoro-4-iodo-phenylamino)-pyridin-4-yl]-2,4-dihydro-[1,2,4]triazol-3-one]
IC50 (human MEK1): ≤ 3000 nM
IC50 (Murine colon C26 cells): ≤ 3000 nM
IC50 [1]: ≤ 3000 nM
IC50 [2]: ≤ 3000 nM

O=C(O)CNc1nnc(-c2ccncc2Nc2ccc(I)cc2F)o1 [Example 45, {5-[3-(2-Fluoro-4-iodo-phenylamino)-pyridin-4-yl]-[1,3,4]oxadiazol-2-ylamino}-acetic acid]
IC50 (human MEK1): ≤ 3000 nM
IC50 (Murine colon C26 cells): 3000 to 25000 nM
IC50 [1]: ≤ 3000 nM
IC50 [2]: 3000 to 25000 nM

CC(=O)Nc1nnc(-c2ccncc2Nc2ccc(I)cc2F)o1 [Example 21, N-{5-[3-(2-Fluoro-4-iodo-phenylamino)-pyridin-4-yl]-[1,3,4]oxadiazol-2-yl}-acetamide]
IC50 (human MEK1): ≤ 3000 nM
IC50 (Murine colon C26 cells): ≤ 3000 nM
IC50 [1]: ≤ 3000 nM
IC50 [2]: ≤ 3000 nM

Nc1nnc(-c2ccncc2Nc2ccc(Br)cc2Cl)o1 [Example 35, [4-(5-Amino-[1,3,4]oxadiazol-2-yl)-pyridin-3-yl]-(4-bromo-2-chloro-phenyl)-amine]
IC50 (human MEK1): ≤ 3000 nM
IC50 (Murine colon C26 cells): ≤ 3000 nM
IC50 [1]: ≤ 3000 nM
IC50 [2]: ≤ 3000 nM

Fc1cc(I)ccc1Nc1cncc(-c2ccccc2F)c1-c1c[nH]nn1 [Example 60, (2-Fluoro-4-iodo-phenyl)-[5-(2-fluoro-phenyl)-4-(1H-[1,2,3]triazol-4-yl)-pyridin-3-yl]-amine]
IC50 (human MEK1): ≤ 3000 nM
IC50 (Murine colon C26 cells): ≤ 3000 nM
IC50 [1]: ≤ 3000 nM
IC50 [2]: ≤ 3000 nM

Fc1cc(I)ccc1Nc1cnccc1-c1ncon1 [Example 56, (2-Fluoro-4-iodo-phenyl)-(4-[1,2,4]oxadiazol-3-yl-pyridin-3-yl)-amine]
IC50 (human MEK1): ≤ 3000 nM
IC50 (Murine colon C26 cells): > 25000 nM
IC50 [1]: 3000 to 25000 nM
IC50 [2]: 3000 to 25000 nM

CCOC(=O)Nc1nnc(-c2ccncc2Nc2ccc(I)cc2F)o1 [Example 26, {5-[3-(2-Fluoro-4-iodo-phenylamino)-pyridin-4-yl]-[1,3,4]oxadiazol-2-yl}-carbamic acid ethyl ester]
IC50 (human MEK1): ≤ 3000 nM
IC50 (Murine colon C26 cells): ≤ 3000 nM
IC50 [1]: ≤ 3000 nM
IC50 [2]: ≤ 3000 nM

Fc1cc(I)ccc1Nc1cnccc1-c1nnco1 [Example 40, (2-Fluoro-4-iodo-phenyl)-(4-[1,3,4]oxadiazol-2-yl-pyridin-3-yl)-amine]
IC50 (human MEK1): ≤ 3000 nM
IC50 (Murine colon C26 cells): ≤ 3000 nM
IC50 [1]: ≤ 3000 nM
IC50 [2]: ≤ 3000 nM

C[Si](C)(C)c1[nH]nnc1-c1ccncc1Nc1ccc(I)cc1F [Example 63, N-(2-fluoro-4-iodophenyl)-4-[5-(trimethylsilyl)-1H-1,2,3-triazol-4-yl]pyridin-3-amine]
IC50 (human MEK1): ≤ 3000 nM
IC50 (Murine colon C26 cells): ≤ 3000 nM
IC50 [1]: ≤ 3000 nM
IC50 [2]: ≤ 3000 nM

Fc1cc(I)ccc1Nc1cnccc1-c1nnc(NCCN2CCOCC2)s1 [Example 12, (2-Fluoro-4-iodo-phenyl)-{4-[5-(2-morpholin-4-yl-ethylamino)-[1,3,4]thiadiazol-2-yl]-pyridin-3-yl}-amine]
IC50 (human MEK1): ≤ 3000 nM
IC50 (Murine colon C26 cells): ≤ 3000 nM
IC50 [1]: ≤ 3000 nM
IC50 [2]: ≤ 3000 nM

OCCNc1nnc(-c2ccncc2Nc2ccc(I)cc2F)o1 [Example 44, 2-{5-[3-(2-Fluoro-4-iodo-phenylamino)-pyridin-4-yl]-[1,3,4]oxadiazol-2-ylamino}-ethanol]
IC50 (human MEK1): ≤ 3000 nM
IC50 (Murine colon C26 cells): ≤ 3000 nM
IC50 [1]: ≤ 3000 nM
IC50 [2]: ≤ 3000 nM

CN(C)C(=O)CNc1nnc(-c2ccncc2Nc2ccc(I)cc2F)o1 [Example 47, 2-{5-[3-(2-Fluoro-4-iodo-phenylamino)-pyridin-4-yl]-[1,3,4]oxadiazol-2-ylamino}-N,N-dimethyl-acetamide]
IC50 (human MEK1): ≤ 3000 nM
IC50 (Murine colon C26 cells): ≤ 3000 nM
IC50 [1]: ≤ 3000 nM
IC50 [2]: ≤ 3000 nM

Fc1cc(I)ccc1Nc1cnccc1-c1n[nH]c(=S)o1 [Example 3, 5-[3-(2-Fluoro-4-iodo-phenylamino)-pyridin-4-yl]-3H-[1,3,4]oxadiazole-2-thione]
IC50 (human MEK1): ≤ 3000 nM
IC50 (Murine colon C26 cells): 3000 to 25000 nM
IC50 [1]: ≤ 3000 nM
IC50 [2]: ≤ 3000 nM

OCc1nnc(-c2ccncc2Nc2ccc(I)cc2F)[nH]1 [Example 32, {5-[3-(2-Fluoro-4-iodo-phenylamino)-pyridin-4-yl]-4H-[1,2,4]triazol-3-yl}-methanol]
IC50 (human MEK1): ≤ 3000 nM
IC50 (Murine colon C26 cells): ≤ 3000 nM
IC50 [1]: ≤ 3000 nM
IC50 [2]: ≤ 3000 nM

CSc1nnc(-c2ccncc2Nc2ccc(I)cc2F)o1 [Example 5, (2-Fluoro-4-iodo-phenyl)-[4-(5-methylsulfanyl-[1,3,4]oxadiazol-2-yl)-pyridin-3-yl]-amine]
IC50 (human MEK1): ≤ 3000 nM
IC50 (Murine colon C26 cells): ≤ 3000 nM
IC50 [1]: ≤ 3000 nM
IC50 [2]: ≤ 3000 nM

Fc1cc(I)ccc1Nc1cnccc1-c1cn[nH]c1 [Example 65, (2-Fluoro-4-iodo-phenyl)-[4-(1H-pyrazol-4-yl)-pyridin-3-yl]-amine]
IC50 (human MEK1): ≤ 3000 nM
IC50 (Murine colon C26 cells): ≤ 3000 nM
IC50 [1]: ≤ 3000 nM
IC50 [2]: ≤ 3000 nM

CNc1nnc(-c2ccncc2Nc2ccc(I)cc2F)o1 [Example 16, (2-Fluoro-4-iodo-phenyl)-[4-(5-methylamino-[1,3,4]oxadiazol-2-yl)-pyridin-3-yl]-amine]
IC50 (human MEK1): ≤ 3000 nM
IC50 (Murine colon C26 cells): ≤ 3000 nM
IC50 [1]: ≤ 3000 nM
IC50 [2]: ≤ 3000 nM

NC(=O)CNc1nnc(-c2ccncc2Nc2ccc(I)cc2F)o1 [Example 46, 2-{5-[3-(2-Fluoro-4-iodo-phenylamino)-pyridin-4-yl]-[1,3,4]oxadiazol-2-ylamino}-acetamide]
IC50 (human MEK1): ≤ 3000 nM
IC50 (Murine colon C26 cells): ≤ 3000 nM
IC50 [1]: ≤ 3000 nM
IC50 [2]: ≤ 3000 nM
